Legend:
[1] = Ability to trap the DPPH radical; settings: 5 μg/mL
Experimental: PRINCIPLE: This method is based on the reduction of an alcoholic solution of the stable form of the DPPH. radical in the presence of an antioxidant donor of hydrogen (AH), which leads to the formation of a non-radical form DPPH-H. This reduction causes a color change from violet to yellow which could be studied at 517 nm. The faster the color change occurs, the more the donor is considered as a strong antioxidant. PROTOCOL: 50 μL of different concentrations of each extract was added to 1.950 mL of freshly prepared methanolic DPPH. […] After incubation for 30 minutes in the dark and at room temperature, the absorbance was read at 517 nm. Methanol was used as control and ascorbic acid was used as standard. The ability to trap DPPH^· was expressed in percentage inhibition as calculated using the following equation: [formula] The inhibitory concentrations 50 (IC50) were later determined by extrapolating after drawing curves of percentage inhibition against concentration. All samples were analyzed in triplicates. I.4.3. Evaluation of DPPH^· Anti-Radical Activity of Rough Extract Fractions This activity was evaluated using the protocol of Sanchez-Moreno et al. (1998) as described earlier.

[2] = Ability to trap the hydroxyl radical (deoxyribose oxidation, Fenton reaction)
Source text: I.2.3 Ability to Trap the Hydroxyl (^·OH) Radical (Halliwell et al., 1987)
PRINCIPLE: The […] capacity of plant extracts to trap the hydroxyl radical is based on the Fenton reaction, by measuring the production of ·OH radical and its effect on the oxidation and degradation bio-molecules such as deoxyribose in DNA. The system in this technique involves an auto-oxidation of the Fe^2+-EDTA complex in an aqueous medium to form the superoxide (O2^−·) anion which is rapidly dismutated into H2O2 at a pH of 7.4. The latter then reacts with Fe^2+ form ^·OH radicals in the presence of ascorbic acid which acts as catalyst (Fenton reaction). […]
PROTOCOL: The reaction mixture contained the following reagents: 0.4 mL of phosphate buffer (50 mmol/L, pH=7.4), 0.1 mL of different concentrations of the extract, 0.1 mL of EDTA (1.04 mmol/L), 0.1 mL of FeCl3 (1 mmol/L) and 0.1 mL 2-deoxyribose (60 mmol/L). the reaction was initiated by adding 0.1 mL of ascorbic acid (2 mmol/L) and 0.1 mL of H2O2 (10 mmol/L). after incubating for 1 hour at 37° C., 1 mL of TBA (10 g/L) were added into the reaction medium followed by 1 mL of HCl (25% v/v). […] The absorbance was then read at 532 nm. The capacity of extracts to trap the hydroxyl radical was expressed as percentage inhibition of the oxidation of 2-deoxyribose based on the following formula: […]

[3] = tested on: lipid peroxidation induced in brain homogenates; experiment: Inhibition of FeSO4-induced lipid peroxidation in brain homogenates; format: biochemical, Wistar rats
Source text: I.2.3 Inhibitory Activity of Lipid Peroxide in Nitro (Prasanth et al., 2000)
PRINCIPLE: Lipid peroxidation refers to the oxidative degradation of lipids which provoke a continuous increase in the permeability of cell membranes, inducing an irreversible alteration of the functional properties of the cell which could eventually lead to cytolysis. It is a radical chain reaction in which a free radical cleaves a hydrogen atom from membrane lipids in order to form a conjugated diene radical, which is oxidized to a peroxyl that in turn generates other radical reactions leading to the formation of terminal products such as MDA. Iron can stimulate lipid peroxidation either by Fenton reaction or by acceleration of peroxidation through the decomposition of lipid hydroperoxides into peroxyl or alkoxyl radicals; themselves capable of cleaving a hydrogen and perpetrating lipid peroxidation. The MDA from this reaction reacts with TBA to give pink colored chromophores which absorb at 532 nm. […]
The lipid peroxidation test was conducted as follows: 300 μL of plant extract at different concentrations and distilled water (control) were added to 500 μL of each homogenate. […] The absorbance was read at 532 nm. […] The IC50 were determined by extrapolating after drawing curves of lipid peroxidation percentage inhibition against the concentrations of plant extracts.

[4] = tested on: Aluminum chloride induced neurotoxicity in Wistar rats; experiment: Aluminum chloride induced neurotoxicity in rats: MDA in brain; format: in vivo
Experimental: (§1) [formula] I.3. Evaluation of Neuro-Protective Effects of the Hydro-Ethanolic Extract of B. toxisperma Against Aluminum Chloride Induced Neurotoxicity (Animal Model of Neurotoxicity)
(§2) Twenty albinos Wistar rats weighing between 230-250 g were used for this experiment in which the treatment lasted 3 days. The experimentation was conducted in the animal house of the Laboratory of Nutrition and Nutritional Biochemistry of the department of Biochemistry (Faculty of Science, University of Yaounde I). Animals were fed with standard feed and drinking water ad libitum.
(§3) Rats were divided into 5 groups of 4 rats each. A unique dose of 32.5 mg/kg BW of aluminum trichloride (AlCl3) was administered by intra peritoneal (i.p) route. […]
PROTOCOL: 100 μL of homogenate and 400 μL of TBA reagent (annex 3b) were introduced into glass test tubes (blank and assay) which were tightly corked. […] The tubes were later opened for any gas to evaporate before centrifugation for 5 minutes at 1500 revs/minute and the absorbance of the liquid phase was read at 532 nm against a blank which contained 400 μL of reagent solution and 100 μL of NaCl 0.9% incubated in similar conditions. The concentration of MDA was determined using it molar extinction coefficient (ε=1.53×10^5 M^−1·cm^−1) and the following formula.

[5] = tested on: Aluminum chloride induced neurotoxicity in Wistar rats; experiment: Aluminum chloride induced neurotoxicity in rats: catalase activity in brain; format: in vivo
Experimental: as §1, §2, §3
(§4) PROTOCOL: The assay tubes contained 100 μL of homogenate or plasma or ovalbumin (caliber) and 3 mL of Biuret's reagent (annex 3c). […] The optical densities were read at 540 nm against a blank which contained 3 mL of reagent solution and 100 μL of NaCl 0.9% incubated under similar conditions. The total protein concentration was determined from the following equation: […]
PRINCIPLE: This method is based on the fact that the catalase present in hemolysates or homogenates reduces hydrogen peroxide (H2O2) to water (H2O) and oxygen (O2). […] Catalase activity is proportional to the optical density and is determined by use of a calibration curve. […]

[6] = tested on: Aluminum chloride induced neurotoxicity in Wistar rats; experiment: Aluminum chloride induced neurotoxicity in rats: thiol proteins in brain; format: in vivo; settings: brain of rats; AlCl3 32.5 mg/kg i.p.; Vit E 100 mg/kg BW/day (VE100)
Experimental: as §1, §2
Rats were divided into 5 groups of 4 rats each. […]
as §4
PROTOCOL: 100 μL of homogenate and 900 μL of Ellman's reagent (annex 3d) were added into the assay tubes, homogenized and incubated at room temperature for 30 minutes before reading the optical densities at 412 nm against a blank which contained 900 μL the reagent solution and 100 μL of NaCl 0.9% incubated under similar conditions as the assay. […] Results were expressed as μmol/g of total proteins.

[7] = tested on: Aluminum chloride induced neurotoxicity in Wistar rats; experiment: Aluminum chloride treated rats: plasma transaminases ASAT (GOT) and ALAT (GPT), hepatic toxicity; format: in vivo
Experimental: as §1, §2
(§5) Rats were divided into 5 groups of 4 rats each. A unique dose of 32.5 mg/kg BW of aluminum trichloride (AlCl3) was administered by intra peritoneal (i.p) route. 24 hours later, different doses of plant extract and vitamin E (reference) were administered by oral route, using a gastro-oesophagian probe once a day for 3 days.
24 hours after the last administration, animals were sacrificed under mild anesthesia in Ether vapor following a 12 hours fasting. The rats' bloods were collected in EDTA tubes. Cervical dislocations were performed immediately after blood collections, to remove the brains which were then rinsed in physiologic solution (0.9% NaCl) and weighed. Plasmas were extracted from the bloods collected and the brains were used to prepare 10% homogenates which served for biochemical analysis.
The blood in EDTA tubes were allowed to stand at room temperature, then centrifuged for 10 minutes at 900 revs/minute, the resulting liquid phase (plasma) was then collected into Eppendorf tubes and stored at −20° C.
1.3.3.3.1. Evaluation of the Activities of the Oxaloglutamate (GOT) and Glutamo-Pyruvate (GPT) Transaminases (Reitman et Franckel, 1957) (Hepatic Toxicity) […]
PROTOCOL: EVALUATION DE L′ACTIVITÉ DE L′ASAT (GOT): 100 μL of substrate solution (annex 3e) were put into tubes, pre-incubated at 37° C. for 5 minutes then 0.02 mL of plasma was added. […] Optical densities were read at 505 nm against a blank (made up of 100 μL of substrate solution and 0.02 mL of NaCl 0.9%) titrated under similar conditions. […]

[8] = tested on: Aluminum chloride induced neurotoxicity in Wistar rats; experiment: Aluminum chloride treated rats: plasma creatinine, renal toxicity; format: in vivo
Experimental: as §1, §2, §5
24 hours after the last administration, animals were sacrificed under mild anesthesia in Ether vapor following a 12 hours fasting. […]
PROTOCOL: 1 mL of working solution (annex 3f) was placed into test tubes and 0.1 mL of plasma and caliber added respectively to assay and blank tubes. Tubes were agitated and their optical densities read 520 nm against a blank; within the 20 seconds that followed the stabilization of the mixture. […] The concentration of creatinine was determined from the following equation: […]

[9] = HEEBT 150 and 300 mg/kg BW, vitamin E, p<0.05
[10] = HEEBT 150 and 300 mg/kg BW, vitamin E
[11] = plasma, AlCl3 32.5 mg/kg i.p., Vit E 100 mg/kg BW/day (VE100)

Compound | % inhibition of DPPH radical [1] | IC50 ·OH scavenging activity [2] | IC50 for lipid peroxidation induced in the brain [3] | percentage inhibition of lipid peroxidation in brain homogenates ([3]; 1000 m/mL) | effect on MDA level in rats compared with the positive control (PC) [4, 9] | MDA ([4]; brain of rats, AlCl3 32.5 mg/kg i.p., Vit E 100 mg/kg BW/day oral, 3 days (VE100)) | effect on catalase activity compared with the PC group [5, 9] | Catalase ([5]; brain of rats, AlCl3 32.5 mg/kg i.p., Vit E 100 mg/kg BW/day (VE100)) | Thiols proteins [6] | effect on activities of plasma transaminases after aluminum [7, 10] | ALAT [7, 11] | ASAT [7, 11] | effect on plasma creatinine after aluminum [8, 10] | Créatinine [8, 11]
O=C1O[C@H]([C@@H](O)CO)C(O)=C1O [Vitamin C, ascorbic acid] | 54% | – | – | – | – | – | – | – | – | – | – | – | – | –
Vitamin E | – | 25.3 mg/mL | 0.574 mg/mL | 60.427% | significantly (p<0.05) reduced | 4.631 ± 0.652 µM | significantly (p<0.05) restore | 0.030 ± 0.003 mM H2O2/min/mg of proteins | 0.299 ± 0.071 μg/mg of proteins | tend to normalize | 60.135 ± 7.453 unité d'ALAT/mL | 76.363 ± 1.868 unité d'ASAT/mL | tend to normalize | 2.297 ± 0.181 mg/dL

— patent publication US11684646B2, “Methods and related compositions for reducing oxidative stress” (Gateway Health Alliances, Inc., priority 2019, dated 2023)
